# Data published in patent US20230183640A1, “METABOLIC INHIBITORS WITH EFFICACY FOR INHIBITING SULFIDE PRODUCTION IN HARSH ENVIRONMENTS” (MC (US) 3 LLC, priority 2020, published 2023).
# What was measured:
# [1] = tested on: Enterococcus faecalis 29212; experiment: Log (Growth) efficacy in anaerobic conditions, non-SRB bacteria; type: cell-based
# Description: (§1) Enumerations were done at each time point, which included 0 hour, 1 hour, 4 hours and 24 hours. Enumeration plates were made to determine the log growth in each dosed sample. For this process, enumeration plates were prepared by adding 180 μL fresh TSB. 20 μL was taken from each well of the challenge plates and transferred to the enumeration plates using a 20-200 μL multichannel pipette. Enumeration plates were mixed three times using the multichannel pipette and serial diluted down the plate tenfold (20 μL into 180 μL). This serial dilution process was repeated for all challenge plate rows giving a total of 6 enumeration plates. These enumeration plates were read after 24-hours and by counting the number of turbid wells in a row.
# (§2) Klebsiella pneumoniae 13883, Enterobacter aerogenes 13048, Escherichia coli 8739, and Enterococcus faecalis 29212 cultures were made by adding one loop from a freezer stock to 10 mL of fresh Phenol Red Media. These were grown anaerobically at 30° C. for 24 hours.
# (§3) Following the 24-hour incubation, each culture was diluted to 1:10 in fresh Phenol Red Media. Using these cultures, two deep well plates were prepared. Edge wells were not used due to their inherent variability and evaporation of the media. Each of the components were added at their respective concentrations for a final volume of 250 μL per well. In Table 9, the concentrations of the compound C1 used for the experiments are listed. Each experiment was done with at least three replicates for different treatments and non-treatment controls. Plates were then sealed with a titer-top and incubated at room temperature in anaerobic chamber. Enumerations were conducted at 0 hour, 1 hour, 4 hours, and 24 hours. The process for these enumerations was the same as that done for example 2; however, utilizing phenol red media instead of tryptic soy broth.
# Escherichia coli 8739 = experiment: as above; type: cell-based
# Description: as §1, §2, §3
structure (smiles),measurement,setting,value
O=C(CN1C(=O)c2cccc3cccc(c23)C1=O)NO [C1],Log (Growth),"[1]; 0 hours, 15.625 PPM",7.000
same,Log (Growth),"[1]; 0 hours, 31.25 PPM",6.667
same,Log (Growth),"[1]; 0 hours, 62.5 PPM",7.000
same,Log (Growth),"[1]; 0 hours, 125 PPM",6.333
same,Log (Growth),"[1]; 0 hours, 250 PPM",7.000
same,Log (Growth),"[1]; 0 hours, 500 PPM",6.667
same,Log (Growth),"[1]; 1 hour, 15.625 PPM",6.667
same,Log (Growth),"[1]; 1 hour, 31.25 PPM",6.000
same,Log (Growth),"[1]; 1 hour, 62.5 PPM",6.333
same,Log (Growth),"[1]; 1 hour, 125 PPM",5.667
same,Log (Growth),"[1]; 1 hour, 250 PPM",6.333
same,Log (Growth),"[1]; 1 hour, 500 PPM",6.000
same,Log (Growth),"[1]; 4 hours, 15.625 PPM",6.667
same,Log (Growth),"[1]; 4 hours, 31.25 PPM",5.667
same,Log (Growth),"[1]; 4 hours, 62.5 PPM",4.667
same,Log (Growth),"[1]; 4 hours, 125 PPM",4.333
same,Log (Growth),"[1]; 4 hours, 250 PPM",4.333
same,Log (Growth),"[1]; 4 hours, 500 PPM",4.667
same,Log (Growth),"[1]; 24 hours, 15.625 PPM",6.333
same,Log (Growth),"[1]; 24 hours, 31.25 PPM",5.333
same,Log (Growth),"[1]; 24 hours, 62.5 PPM",5.667
same,Log (Growth),"[1]; 24 hours, 125 PPM",5.667
same,Log (Growth),"[1]; 24 hours, 250 PPM",4.333
same,Log (Growth),"[1]; 24 hours, 500 PPM",4.000
same,Log (Growth),"Escherichia coli 8739; 0 hours, 15.625 PPM",7.000
same,Log (Growth),"Escherichia coli 8739; 0 hours, 31.25 PPM",6.667
same,Log (Growth),"Escherichia coli 8739; 0 hours, 62.5 PPM",6.667
same,Log (Growth),"Escherichia coli 8739; 0 hours, 125 PPM",6.333
same,Log (Growth),"Escherichia coli 8739; 0 hours, 250 PPM",6.000
same,Log (Growth),"Escherichia coli 8739; 0 hours, 500 PPM",6.333
same,Log (Growth),"Escherichia coli 8739; 1 hour, 15.625 PPM",7.000
same,Log (Growth),"Escherichia coli 8739; 1 hour, 31.25 PPM",6.000
same,Log (Growth),"Escherichia coli 8739; 1 hour, 62.5 PPM",6.333
same,Log (Growth),"Escherichia coli 8739; 1 hour, 125 PPM",6.000
same,Log (Growth),"Escherichia coli 8739; 1 hour, 250 PPM",6.000
same,Log (Growth),"Escherichia coli 8739; 1 hour, 500 PPM",6.000
same,Log (Growth),"Escherichia coli 8739; 4 hours, 15.625 PPM",6.667
same,Log (Growth),"Escherichia coli 8739; 4 hours, 31.25 PPM",6.667
same,Log (Growth),"Escherichia coli 8739; 4 hours, 62.5 PPM",5.333
same,Log (Growth),"Escherichia coli 8739; 4 hours, 125 PPM",4.667
same,Log (Growth),"Escherichia coli 8739; 4 hours, 250 PPM",5.000
same,Log (Growth),"Escherichia coli 8739; 4 hours, 500 PPM",4.333
same,Log (Growth),"Escherichia coli 8739; 24 hours, 15.625 PPM",6.000
same,Log (Growth),"Escherichia coli 8739; 24 hours, 31.25 PPM",4.000
same,Log (Growth),"Escherichia coli 8739; 24 hours, 62.5 PPM",2.667
same,Log (Growth),"Escherichia coli 8739; 24 hours, 125 PPM",3.000
same,Log (Growth),"Escherichia coli 8739; 24 hours, 250 PPM",4.000
same,Log (Growth),"Escherichia coli 8739; 24 hours, 500 PPM",2.667
